pIC50: −log10 of the molar value. Entries after “also recorded” stand apart in the source; their conditions may differ.
What was measured:
CYP2B6 = target: T1, CYP2B6 (Homo sapiens, UniProt P20813); experiment: Inhibition of CYP2B6 activity (bupropion hydroxylation) in pooled human liver microsomes; format: in vitro ADME; details: pooled HLMs, cocktail set A; inhibitor 0, 0.5, 2, 5, 20, 50 µM; 10 min at 37 °C; LC-MS/MS
T1 construct: with slight modifications in the pooled HLMs; tissue XenoTech XTreme 200; host or cells: pooled human liver microsomes
T1 sequence (P20813 1-491): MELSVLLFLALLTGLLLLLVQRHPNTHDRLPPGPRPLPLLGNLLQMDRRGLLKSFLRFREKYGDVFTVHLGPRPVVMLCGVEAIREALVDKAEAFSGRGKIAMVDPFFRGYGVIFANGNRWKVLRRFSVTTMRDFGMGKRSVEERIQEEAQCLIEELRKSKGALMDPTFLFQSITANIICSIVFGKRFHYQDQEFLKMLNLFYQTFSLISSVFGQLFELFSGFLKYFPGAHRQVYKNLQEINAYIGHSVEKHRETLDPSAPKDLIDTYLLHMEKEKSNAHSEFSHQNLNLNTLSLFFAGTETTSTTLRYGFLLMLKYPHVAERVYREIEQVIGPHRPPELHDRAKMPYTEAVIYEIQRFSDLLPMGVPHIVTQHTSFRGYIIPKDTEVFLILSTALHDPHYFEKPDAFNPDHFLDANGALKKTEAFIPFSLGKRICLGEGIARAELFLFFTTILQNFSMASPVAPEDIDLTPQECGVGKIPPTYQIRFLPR
Description: (§1) The inhibitory potency of seongsanamide A was evaluated by a previously described method with slight modifications in the pooled HLMs. The microsomal incubation was conducted using two cocktail sets containing P450-specific probe substrates; A: phenacetin (CYP1A2), bupropion (CYP2B6), amodiaquine (CYP2C8), tolbutamide (CYP2C9), omeprazole (CYP2C19), and dextromethorphan (CYP2D6); B: coumarin (CYP2A6), chlorzoxazone (CYP2E1), and midazolam (CYP3A). After incubation for 10 min at 37 °C in HLMs in the presence or absence of seongsanamide A (0, 0.5, 2, 5, 20, and 50 µM), the reaction was quenched with cold acetonitrile containing trimipramine as an internal standard. After centrifugation, aliquots of the supernatants were analyzed using LC-MS/MS as described previously. IC50 (concentration of the inhibitor causing 50% inhibition of the original enzyme activity) values were calculated using WinNonlin (Pharsight, Mountain View, CA, USA).

[1] = tested on: bone marrow-derived mast cells; details: even at 100 µM; cited from earlier work
Description: The genus Bacillus in the marine environment is known to produce structurally diverse peptides, including bicyclic peptides. Seongsanamide A (Figure 1) is one of four bioactive bicyclic depsipeptides isolated from Bacillus safensis KCTC 12796BP, which was obtained from a marine sponge collected from Seongsan on Jeju Island, Korea. It contains a unique isodityrosine moiety which is responsible for its bioactivity.

CYP2E1 = target: T2, CYP2E1 (Homo sapiens, UniProt P05181); format: in vitro ADME
T2 construct: with slight modifications in the pooled HLMs; tissue XenoTech XTreme 200; host or cells: pooled human liver microsomes
Description: as §1

CYP1A2 = target: T3, CYP1A2 (Homo sapiens, UniProt P05177); format: in vitro ADME
T3 construct: with slight modifications in the pooled HLMs; tissue XenoTech XTreme 200; host or cells: pooled human liver microsomes
T3 sequence (P05177 1-516): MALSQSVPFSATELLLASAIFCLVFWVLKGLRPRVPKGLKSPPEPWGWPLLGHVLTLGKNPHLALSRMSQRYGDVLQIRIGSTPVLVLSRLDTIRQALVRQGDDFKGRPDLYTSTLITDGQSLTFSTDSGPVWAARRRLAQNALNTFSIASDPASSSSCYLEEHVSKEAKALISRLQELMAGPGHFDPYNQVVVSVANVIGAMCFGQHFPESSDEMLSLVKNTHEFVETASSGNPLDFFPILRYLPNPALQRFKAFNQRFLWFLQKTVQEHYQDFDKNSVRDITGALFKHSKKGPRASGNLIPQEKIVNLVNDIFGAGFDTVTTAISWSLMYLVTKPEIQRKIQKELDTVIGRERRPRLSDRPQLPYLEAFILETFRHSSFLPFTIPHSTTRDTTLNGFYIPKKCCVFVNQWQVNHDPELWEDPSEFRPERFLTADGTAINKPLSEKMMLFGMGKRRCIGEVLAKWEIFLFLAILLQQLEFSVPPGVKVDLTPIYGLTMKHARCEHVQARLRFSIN
Description: as §1

rCYP3A5 = target: T4, rCYP3A5 (Homo sapiens, UniProt P20815); experiment: Reaction phenotyping with recombinant cytochrome P450 isoforms: rCYP3A5; format: in vitro ADME; details: 20 pmol/mL rP450, seongsanamide A 1 µM, pH 7.4, 5 min pre-incubation, 15 min at 37 °C with NADPH generating system, LC-MS/MS, n = 3
T4 construct: purchased Corning life sciences (Woburn, MA, USA)
Description: (§2) The incubation mixture consisted of 100 mM potassium phosphate buffer (pH 7.4), 20 pmol/mL rCYP1A2, 2A6, 2B6, 2C8, 2C9, 2C19, 2D6, 2E1, 2J2, 3A4 or 3A5 isoforms, and seongsanamide A (1 µM) in a final volume of 100 µL. After a 5 min pre-incubation period at 37 °C, reactions were initiated by the addition of an NADPH generating system and further incubated for 15 min at 37 °C. The reaction was terminated by placing the incubation tubes on ice and by immediately adding 50 µL of acetonitrile. After centrifugation, aliquots of the supernatant were injected into an LC-tandem mass spectrometer (MS/MS). Seongsanamide A and its four metabolites (M1~M4) were separated on a Kinetex XB-C18 column (100 × 2.1 mm, Phenomenex) and analyzed using a Shimadzu LC-MS 8040 MS/MS (Shimadzu, Kyoto, Japan) equipped with a Nexera X2 LC system (Shimadzu) coupled with an electrospray ionization (ESI) interface. LC elution conditions for the analysis of seongsanamide A and its four metabolites were: 10 to 90% B for 0–6 min, 90 to 10% B for 6–6.1 min, and 10% B for 6.1–10 min. Detection of the ions was performed by monitoring the transitions of m/z 836.5 → 565.3 for hydrolyzed seongsanamide A (M1), m/z 1021.5 → 836.5 for monohydroxy-seongsanamide A (M2), m/z 1037.5 → 836.5 for dihydroxy-seongsanamide A (M3), and m/z 1053.5 → 836.5 for tridihydroxy-seongsanamide A (M4). […]

[2] = tested on: nine cytochrome P450 enzymes; experiment: Inhibitory potential against nine cytochrome P450 isoforms in human liver microsomes (summary statements); format: in vitro ADME; details: pooled HLMs
Description: as §1

rCYP3A4 = target: T5, rCYP3A4 (Homo sapiens, UniProt P08684); experiment: Reaction phenotyping with recombinant cytochrome P450 isoforms: rCYP3A4; format: in vitro ADME; details: 20 pmol/mL rP450, seongsanamide A 1 µM, pH 7.4, 5 min pre-incubation, 15 min at 37 °C with NADPH generating system, LC-MS/MS, n = 3
T5 construct: purchased Corning life sciences (Woburn, MA, USA)
Description: as §2

CYP3A = details: read-out: IC50 against CYP3A; cited from earlier work

T5 sequence (P08684 whole entry, canonical isoform): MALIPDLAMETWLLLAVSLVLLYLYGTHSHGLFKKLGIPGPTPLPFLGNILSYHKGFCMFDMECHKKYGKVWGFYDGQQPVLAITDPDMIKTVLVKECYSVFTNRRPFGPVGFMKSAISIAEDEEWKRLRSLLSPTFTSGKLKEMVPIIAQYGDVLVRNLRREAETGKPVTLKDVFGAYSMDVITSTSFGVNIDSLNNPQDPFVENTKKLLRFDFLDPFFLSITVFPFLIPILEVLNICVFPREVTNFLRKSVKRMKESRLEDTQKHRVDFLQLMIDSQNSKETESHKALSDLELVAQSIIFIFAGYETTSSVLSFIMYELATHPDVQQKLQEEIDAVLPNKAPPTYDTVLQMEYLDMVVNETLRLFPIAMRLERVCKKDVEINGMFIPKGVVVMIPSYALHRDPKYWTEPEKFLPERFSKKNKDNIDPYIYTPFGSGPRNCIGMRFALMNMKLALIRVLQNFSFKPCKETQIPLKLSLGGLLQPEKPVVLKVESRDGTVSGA
T4 sequence (P20815 whole entry, canonical isoform): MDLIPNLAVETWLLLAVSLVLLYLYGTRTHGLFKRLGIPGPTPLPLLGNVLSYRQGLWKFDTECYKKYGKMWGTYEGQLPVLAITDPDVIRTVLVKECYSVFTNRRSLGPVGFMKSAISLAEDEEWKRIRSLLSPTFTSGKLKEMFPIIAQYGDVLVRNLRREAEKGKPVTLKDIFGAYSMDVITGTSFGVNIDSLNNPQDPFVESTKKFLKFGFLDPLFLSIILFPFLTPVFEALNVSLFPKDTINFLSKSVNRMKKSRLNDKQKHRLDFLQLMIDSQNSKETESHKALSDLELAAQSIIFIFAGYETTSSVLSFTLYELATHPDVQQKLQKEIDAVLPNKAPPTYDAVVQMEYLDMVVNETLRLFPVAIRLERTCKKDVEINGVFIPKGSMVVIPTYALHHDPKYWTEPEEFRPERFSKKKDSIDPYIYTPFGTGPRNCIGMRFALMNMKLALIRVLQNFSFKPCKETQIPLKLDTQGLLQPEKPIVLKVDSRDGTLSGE
T2 sequence (P05181 whole entry): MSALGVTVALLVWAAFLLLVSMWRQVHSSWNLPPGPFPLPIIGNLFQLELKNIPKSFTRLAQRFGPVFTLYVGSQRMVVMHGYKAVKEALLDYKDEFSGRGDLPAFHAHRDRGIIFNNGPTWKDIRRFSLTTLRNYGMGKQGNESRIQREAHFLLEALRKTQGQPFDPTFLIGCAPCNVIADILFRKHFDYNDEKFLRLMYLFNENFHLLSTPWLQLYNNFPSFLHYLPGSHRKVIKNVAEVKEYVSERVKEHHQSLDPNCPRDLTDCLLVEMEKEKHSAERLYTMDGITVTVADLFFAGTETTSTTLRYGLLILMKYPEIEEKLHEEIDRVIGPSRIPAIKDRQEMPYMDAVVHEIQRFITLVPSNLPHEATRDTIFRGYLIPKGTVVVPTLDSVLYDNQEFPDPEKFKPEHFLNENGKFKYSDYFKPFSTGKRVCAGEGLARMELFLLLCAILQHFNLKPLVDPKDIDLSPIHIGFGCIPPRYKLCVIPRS

Row | Compound | pIC50 (CYP2B6) | Cytotoxicity [1] | IC50, chlorzoxazone 6-hydroxylation (CYP2E1) (CYP2E1) [µM] | IC50, phenacetin O-deethylation (CYP1A2) (CYP1A2) [µM] | Role of CYP3A5 in formation of metabolites (rCYP3A5) | IC50 at 10 min ([2]; human, pooled human liver microsomes, all nine isoforms taken together, read-out: IC50 against the nine cytochrome P450 isoforms (summary bound)) [µM] | Effect on the activities of the other P450 isoforms ([2]; seongsanamide A at 50 µM) | Role of CYP3A4 in formation of metabolites M1-M4 (rCYP3A4) | pIC50 (CYP3A)
1 | CCC(=O)N[C@@H](CC(C)C)C(=O)N[C@H](C)C(=O)N[C@@H]1Cc2ccc(cc2)Oc2cc(ccc2O)C[C@@H]2NC(=O)[C@H]([C@@H](C)CC)NC(=O)[C@H](CC(C)C)NC(=O)[C@@H](CC(C)C)NC(=O)[C@@H](NC1=O)[C@@H](C)OC2=O [Seongsanamide A] | 4.59 to 4.66 | without significant cytotoxicity | >50 | >50 | major metabolic enzymes; also recorded: CYP3A5 was involved in the formation of mono-hydroxyseongsanamide A (M2) | > 10 | did not affect | major metabolic enzymes; also recorded: CYP3A4 played a major role in the formation of M1, M2, M3, and M4 | –
2 | CC(C)(C)NC(=O)[C@@H]1C[C@@H]2CCCC[C@@H]2CN1C[C@@H](O)[C@H](Cc1ccccc1)NC(=O)[C@H](CC(N)=O)NC(=O)c1ccc2ccccc2n1 [saquinavir] | – | – | – | – | – | – | – | – | 5.67
